pIC50: −log10 of the molar value.
What was measured:
Format in all cases: biochemical
Sheep sEH = biological target: T1, Sheep sEH (Ovis aries, UniProt A0ACI6PZ20); assay: sEH inhibition, radioactive assay and liver cytosolic preparation
T1 sequence (A0ACI6PZ20 1-549): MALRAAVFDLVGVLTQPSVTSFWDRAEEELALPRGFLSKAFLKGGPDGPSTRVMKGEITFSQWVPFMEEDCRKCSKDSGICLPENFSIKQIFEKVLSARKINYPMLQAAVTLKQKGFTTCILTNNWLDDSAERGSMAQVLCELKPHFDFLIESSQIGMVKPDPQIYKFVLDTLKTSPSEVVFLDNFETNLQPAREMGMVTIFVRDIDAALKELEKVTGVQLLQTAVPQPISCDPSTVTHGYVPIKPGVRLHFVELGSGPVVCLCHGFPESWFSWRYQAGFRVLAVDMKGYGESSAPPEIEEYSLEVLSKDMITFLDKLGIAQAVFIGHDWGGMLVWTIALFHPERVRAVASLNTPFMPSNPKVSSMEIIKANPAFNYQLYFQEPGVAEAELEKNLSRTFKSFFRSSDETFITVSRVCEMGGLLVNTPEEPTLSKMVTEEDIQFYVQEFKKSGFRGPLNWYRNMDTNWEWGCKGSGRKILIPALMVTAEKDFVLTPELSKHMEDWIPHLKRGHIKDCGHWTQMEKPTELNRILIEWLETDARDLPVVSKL

Pig sEH = biological target: T2, Pig sEH (Sus scrofa, UniProt Q6Q2C2); assay: as above
T2 construct: from tissue
T2 sequence (Q6Q2C2 1-555): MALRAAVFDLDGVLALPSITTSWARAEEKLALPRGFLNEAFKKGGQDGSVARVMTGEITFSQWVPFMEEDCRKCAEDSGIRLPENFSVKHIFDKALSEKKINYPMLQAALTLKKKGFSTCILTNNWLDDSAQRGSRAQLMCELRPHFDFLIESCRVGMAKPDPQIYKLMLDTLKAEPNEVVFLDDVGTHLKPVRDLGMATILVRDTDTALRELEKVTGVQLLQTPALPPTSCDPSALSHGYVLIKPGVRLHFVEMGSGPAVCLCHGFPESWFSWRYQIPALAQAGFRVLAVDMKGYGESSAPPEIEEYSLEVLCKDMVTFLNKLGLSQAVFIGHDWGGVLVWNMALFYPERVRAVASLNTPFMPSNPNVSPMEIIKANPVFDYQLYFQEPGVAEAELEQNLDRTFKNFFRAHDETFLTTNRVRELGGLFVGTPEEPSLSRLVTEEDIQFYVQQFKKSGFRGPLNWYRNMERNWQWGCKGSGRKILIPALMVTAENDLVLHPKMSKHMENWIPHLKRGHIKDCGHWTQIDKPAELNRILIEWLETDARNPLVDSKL

Rat sEH = biological target: T3, Rat sEH (Rattus norvegicus, UniProt P80299); assay: sEH inhibition, fluorescent assay
T3 sequence (P80299 1-554): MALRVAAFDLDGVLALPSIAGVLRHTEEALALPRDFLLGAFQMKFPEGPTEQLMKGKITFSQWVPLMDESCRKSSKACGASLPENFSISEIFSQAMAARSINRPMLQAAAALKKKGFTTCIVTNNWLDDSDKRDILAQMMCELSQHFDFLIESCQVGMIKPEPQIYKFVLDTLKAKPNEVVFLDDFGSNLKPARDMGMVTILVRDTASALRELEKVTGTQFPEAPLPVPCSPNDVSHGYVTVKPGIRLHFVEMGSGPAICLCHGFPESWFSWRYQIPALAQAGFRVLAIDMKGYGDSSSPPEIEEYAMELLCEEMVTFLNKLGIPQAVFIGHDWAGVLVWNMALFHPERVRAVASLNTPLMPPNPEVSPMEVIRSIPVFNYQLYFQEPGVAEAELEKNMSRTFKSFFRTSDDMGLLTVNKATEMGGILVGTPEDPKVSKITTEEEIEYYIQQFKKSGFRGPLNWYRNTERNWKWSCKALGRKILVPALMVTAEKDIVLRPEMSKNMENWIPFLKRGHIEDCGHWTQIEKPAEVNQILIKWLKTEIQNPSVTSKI

O=C(Nc1ccc(OC(F)(F)F)cc1)N[C@H]1CC[C@H](Oc2ccc(C(=O)O)cc2)CC1 [EC1728, trans-4-{4-[3-(4-trifluoromethoxy-phenyl)-ureido]-cyclohexyloxy}-benzoic acid]
pIC50 (Sheep sEH): 8.22 | pIC50 (Pig sEH): 7.54 | pIC50 (Rat sEH): 7.80

From patent US11987542B2, “Co-crystal of sorafenib derivatives and process for preparation thereof” (EicOsis, LLC, priority 2018, dated 2024)
